Data as given in US9974775B2, “Substituted imidazoles as N-type calcium channel blockers” (Janssen Pharmaceutica NV, priority 2013, dated 2018).

Biological target: human N-type Ca channel (Homo sapiens, UniProt Q00975)
Experiment: Measurement of electrophysiological response (QPatch)
Settings: for IC50: concentration range 0.3-10 μM
[1] = N Type IC50 Data Qpatch Pulse = 1, Pulse = 1
[2] = N Type IC50 Data Qpatch Pulse = 15, Pulse = 15
[3] = concentration range 0.01-0.3 μM

human N-type Ca channel, sequence (Q00975 whole entry): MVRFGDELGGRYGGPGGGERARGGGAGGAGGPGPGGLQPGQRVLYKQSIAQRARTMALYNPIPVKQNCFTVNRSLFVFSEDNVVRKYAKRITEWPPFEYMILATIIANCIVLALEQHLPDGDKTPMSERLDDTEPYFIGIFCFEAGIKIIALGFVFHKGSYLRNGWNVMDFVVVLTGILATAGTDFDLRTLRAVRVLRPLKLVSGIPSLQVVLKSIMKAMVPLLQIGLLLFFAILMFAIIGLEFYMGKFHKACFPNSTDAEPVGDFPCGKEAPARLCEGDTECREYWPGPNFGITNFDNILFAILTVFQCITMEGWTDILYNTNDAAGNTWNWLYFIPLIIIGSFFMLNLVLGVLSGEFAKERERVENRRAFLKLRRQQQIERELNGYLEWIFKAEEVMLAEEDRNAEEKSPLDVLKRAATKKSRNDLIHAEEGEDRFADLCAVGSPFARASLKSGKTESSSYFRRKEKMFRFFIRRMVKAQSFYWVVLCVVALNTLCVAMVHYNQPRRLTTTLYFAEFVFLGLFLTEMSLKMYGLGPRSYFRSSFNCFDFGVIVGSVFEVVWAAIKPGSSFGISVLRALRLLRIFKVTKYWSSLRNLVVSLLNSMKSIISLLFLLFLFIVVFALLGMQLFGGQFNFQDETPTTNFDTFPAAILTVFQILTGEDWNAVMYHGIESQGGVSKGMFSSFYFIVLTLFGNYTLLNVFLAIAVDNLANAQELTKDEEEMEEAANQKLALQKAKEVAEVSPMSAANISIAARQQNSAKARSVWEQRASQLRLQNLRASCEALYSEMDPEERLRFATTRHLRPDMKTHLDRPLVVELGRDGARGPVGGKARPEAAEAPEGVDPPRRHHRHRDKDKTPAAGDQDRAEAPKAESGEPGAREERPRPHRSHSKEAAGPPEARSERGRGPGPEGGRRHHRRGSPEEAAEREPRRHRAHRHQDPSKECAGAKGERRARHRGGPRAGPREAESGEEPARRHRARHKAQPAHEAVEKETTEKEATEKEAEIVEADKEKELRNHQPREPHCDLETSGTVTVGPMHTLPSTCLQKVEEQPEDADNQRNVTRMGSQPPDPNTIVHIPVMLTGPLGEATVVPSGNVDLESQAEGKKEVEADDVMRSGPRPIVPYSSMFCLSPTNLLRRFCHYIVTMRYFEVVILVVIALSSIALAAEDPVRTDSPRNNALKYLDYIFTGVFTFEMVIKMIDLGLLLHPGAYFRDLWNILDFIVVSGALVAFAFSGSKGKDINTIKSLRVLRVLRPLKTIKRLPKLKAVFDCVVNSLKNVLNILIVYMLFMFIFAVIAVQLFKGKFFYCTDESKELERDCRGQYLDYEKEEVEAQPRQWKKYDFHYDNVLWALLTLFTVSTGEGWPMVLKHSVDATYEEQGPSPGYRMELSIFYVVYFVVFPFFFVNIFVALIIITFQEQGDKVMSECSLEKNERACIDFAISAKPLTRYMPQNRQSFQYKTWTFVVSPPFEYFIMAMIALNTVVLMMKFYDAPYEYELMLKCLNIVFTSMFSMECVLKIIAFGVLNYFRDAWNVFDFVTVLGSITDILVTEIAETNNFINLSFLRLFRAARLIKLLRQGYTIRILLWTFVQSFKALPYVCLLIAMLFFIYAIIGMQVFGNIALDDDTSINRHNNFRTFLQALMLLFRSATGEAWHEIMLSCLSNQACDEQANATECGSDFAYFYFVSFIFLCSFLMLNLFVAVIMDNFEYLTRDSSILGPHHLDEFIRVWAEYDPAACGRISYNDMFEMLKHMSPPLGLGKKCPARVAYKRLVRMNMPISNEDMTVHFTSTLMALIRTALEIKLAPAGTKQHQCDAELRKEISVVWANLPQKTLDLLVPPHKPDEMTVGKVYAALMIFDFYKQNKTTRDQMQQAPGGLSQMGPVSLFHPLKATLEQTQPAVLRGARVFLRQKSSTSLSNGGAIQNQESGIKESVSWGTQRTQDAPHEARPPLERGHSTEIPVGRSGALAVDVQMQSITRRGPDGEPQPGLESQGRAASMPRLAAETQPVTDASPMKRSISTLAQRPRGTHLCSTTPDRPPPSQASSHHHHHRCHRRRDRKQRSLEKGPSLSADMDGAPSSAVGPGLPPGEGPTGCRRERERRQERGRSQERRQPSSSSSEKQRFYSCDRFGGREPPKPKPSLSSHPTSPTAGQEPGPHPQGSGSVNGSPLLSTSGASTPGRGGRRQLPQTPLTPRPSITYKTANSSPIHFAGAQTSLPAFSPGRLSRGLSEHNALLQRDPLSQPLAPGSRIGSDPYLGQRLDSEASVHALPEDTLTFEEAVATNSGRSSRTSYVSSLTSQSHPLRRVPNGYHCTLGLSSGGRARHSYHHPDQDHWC
human N-type Ca channel, sequence (P54284 whole entry partner): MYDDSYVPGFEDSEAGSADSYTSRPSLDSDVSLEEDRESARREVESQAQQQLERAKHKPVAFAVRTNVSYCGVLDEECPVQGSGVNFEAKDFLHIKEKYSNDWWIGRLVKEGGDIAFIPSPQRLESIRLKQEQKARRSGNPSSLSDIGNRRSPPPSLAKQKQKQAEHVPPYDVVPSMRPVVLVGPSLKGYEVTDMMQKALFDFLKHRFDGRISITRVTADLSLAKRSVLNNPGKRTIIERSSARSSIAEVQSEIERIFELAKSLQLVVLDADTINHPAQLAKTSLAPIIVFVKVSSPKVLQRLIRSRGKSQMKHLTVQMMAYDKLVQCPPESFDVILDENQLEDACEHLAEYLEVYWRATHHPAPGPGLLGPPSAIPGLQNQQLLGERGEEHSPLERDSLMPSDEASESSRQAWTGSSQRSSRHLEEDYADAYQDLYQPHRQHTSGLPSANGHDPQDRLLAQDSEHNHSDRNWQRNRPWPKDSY
human N-type Ca channel, sequence (P54289 25-956 partner limits assumed): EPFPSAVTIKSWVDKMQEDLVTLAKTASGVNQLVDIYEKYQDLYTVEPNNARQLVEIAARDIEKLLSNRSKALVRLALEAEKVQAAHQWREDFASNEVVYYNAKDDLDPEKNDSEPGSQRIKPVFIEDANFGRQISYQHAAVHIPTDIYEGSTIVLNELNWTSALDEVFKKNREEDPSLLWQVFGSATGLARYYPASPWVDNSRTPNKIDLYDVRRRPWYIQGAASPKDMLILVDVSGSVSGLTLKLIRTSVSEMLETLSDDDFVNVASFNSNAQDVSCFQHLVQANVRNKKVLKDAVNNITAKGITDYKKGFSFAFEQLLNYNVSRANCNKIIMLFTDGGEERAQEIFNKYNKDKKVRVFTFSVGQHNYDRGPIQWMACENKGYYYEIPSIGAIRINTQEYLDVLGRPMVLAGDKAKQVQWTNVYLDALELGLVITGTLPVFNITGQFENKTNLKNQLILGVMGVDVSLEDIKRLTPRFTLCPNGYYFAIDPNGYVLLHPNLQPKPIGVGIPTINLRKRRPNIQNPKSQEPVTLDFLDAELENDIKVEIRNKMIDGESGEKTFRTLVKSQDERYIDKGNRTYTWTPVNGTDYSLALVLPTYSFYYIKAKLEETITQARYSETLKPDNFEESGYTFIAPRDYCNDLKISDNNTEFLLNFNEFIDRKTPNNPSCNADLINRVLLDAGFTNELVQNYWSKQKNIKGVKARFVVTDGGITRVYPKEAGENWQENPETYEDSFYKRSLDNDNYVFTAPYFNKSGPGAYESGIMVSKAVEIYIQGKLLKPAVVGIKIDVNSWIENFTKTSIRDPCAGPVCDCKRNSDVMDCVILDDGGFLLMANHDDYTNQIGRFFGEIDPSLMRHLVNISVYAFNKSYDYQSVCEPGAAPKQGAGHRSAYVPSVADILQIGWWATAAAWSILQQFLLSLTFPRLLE
human N-type Ca channel, sequence (P54289 957-1103 partner limits assumed): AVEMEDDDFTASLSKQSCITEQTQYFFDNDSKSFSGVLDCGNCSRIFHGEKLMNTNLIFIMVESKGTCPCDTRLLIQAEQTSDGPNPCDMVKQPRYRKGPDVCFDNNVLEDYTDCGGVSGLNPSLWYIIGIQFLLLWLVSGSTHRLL
Procedure: The recombinant cell line described above was used in the measurement of electrophysiological properties with QPatch (Sophion). […] Prior to the experiment, the flasks were moved to 30° C. and incubated for 48-72 hrs. On the day of assaying, cells were detached and harvested. The cell pellet was re-suspended in SMF4HEK (HyClone)/25 mM HEPS at 2-5 million/mL and placed on the QStirrer of the QPatch for 30-60 min prior to the start of the assay. […] Microtiter-Plate/Reference Buffer contained 140 mM TEA-Cl, 10 mM BaCl2, 0.8 mM MgCl2, 10 mM HEPES pH˜7.4 adjusted with TEA-OH/HCl, and ˜300 mOsm. Cells were transferred to a QPatch 48 plate and gigaseal was formed. The plate was perfused with intracellular and extracellular buffer. […] In brief, cells were depolarized from resting potential of −80 mV to +20 mV and current was recorded. Data was plotted as percent inhibition vs concentration of the compound and IC50 values were generated using Graphpad Prism non-linear regression analysis.

**Q.** Which IC50 [1] does the source give for `COc1ccccc1-c1nc(C2CC(C)(C)OC(C)(C)C2)cn1-c1ccc(F)cc1` [Cpd 4, 1-(4-Fluorophenyl)-2-(2-methoxyphenyl)-4-(2,2,6,6-tetramethyltetrahydro-2H-pyran-4-yl)-1H-imidazole] here?
**A.** ≥ 10 µM

**Q.** For `COc1ccccc1-c1nc(C2CC(C)(C)OC(C)(C)C2)cn1-c1ccc(C)nc1` [Cpd 5, 5-[2-(2-Methoxyphenyl)-4-(2,2,6,6-tetramethyltetrahydro-2H-pyran-4-yl)-1H-imidazol-1-yl]-2-methylpyridine], which IC50 [2] is on record?
**A.** ≥ 10 µM

**Q.** How did the IC50 [1] turn out when `COc1ccccc1-c1nc(C2CC(C)(C)OC(C)(C)C2)cn1-c1ccc(C)cn1` [Cpd 6, 2-[2-(2-Methoxyphenyl)-4-(2,2,6,6-tetramethyltetrahydro-2H-pyran-4-yl)-1H-imidazol-1-yl]-5-methylpyridine] was run?
**A.** ≥ 10 µM

**Q.** And the IC50 [2]?
**A.** ≥ 10 µM

**Q.** What does the source list for `COc1ncccc1-c1nc(C2CC(C)(C)OC(C)(C)C2)cn1Cc1cccc(Cl)c1` [Cpd 9, 3-(1-(3-chlorobenzyl)-4-(2,2,6,6-tetramethyltetrahydro-2H-pyran-4-yl)-1H-imidazol-2-yl)-2-methoxypyridine]?
**A.** Qpatch Pulse = 1 (percent inhibition) (concentration range 0.01-1 μM): 46%; Qpatch Pulse = 15 (percent inhibition) (concentration range 0.01-1 μM): 37%

**Q.** For `COc1ncccc1-c1nc(C2CC(C)(C)OC(C)(C)C2)cn1-c1ccc(C#N)c(C)c1` [Cpd 15, 4-[2-(2-Methoxypyridin-3-yl)-4-(2,2,6,6-tetramethyltetrahydro-2H-pyran-4-yl)-1H-imidazol-1-yl]-2-methylbenzonitrile], which “N Type IC50 Data Qpatch Pulse = 1” value [3] is on record?
**A.** poor fit

**Q.** What about the “N Type IC50 Data Qpatch Pulse = 15” value [3] of the same molecule?
**A.** poor fit

**Q.** Which “N Type IC50 Data Qpatch Pulse = 1” value [3] does the source give for `COc1ncccc1-c1nc(C2CC(C)(C)OC(C)(C)C2)cn1-c1ccc(F)c(F)c1F` [Cpd 16, 2-methoxy-3-(4-(2,2,6,6-tetramethyltetrahydro-2H-pyran-4-yl)-1-(2,3,4-trifluorophenyl)-1H-imidazol-2-yl)pyridine] here?
**A.** poor fit

**Q.** What about the “N Type IC50 Data Qpatch Pulse = 15” value [3] of the same molecule?
**A.** poor fit

**Q.** With `COc1ccccc1-c1nc(C2CC(C)(C)OC(C)(C)C2)cn1-c1ccc(C#N)c(C)c1` [Cpd 21, 4-[2-(2-Methoxyphenyl)-4-(2,2,6,6-tetramethyltetrahydro-2H-pyran-4-yl)-1H-imidazol-1-yl]-2-methylbenzonitrile] as the molecule, how does the “Qpatch Pulse = 15 (percent inhibition)” value (concentration range 0.01-1 μM) read?
**A.** 39%

**Q.** With `COc1ccc(-n2cc(C3CC(C)(C)OC(C)(C)C3)nc2-c2cccnc2OC)cc1F` [Cpd 23, 3-[1-(3-Fluoro-4-methoxyphenyl)-4-(2,2,6,6-tetramethyltetrahydro-2H-pyran-4-yl)-1H-imidazol-2-yl]-2-methoxypyridine] as the molecule, how does the “Qpatch Pulse = 1 (percent inhibition)” value (concentration range 0.01-1 μM) read?
**A.** 21%

**Q.** `COc1cc(-n2cc(C3CC(C)(C)OC(C)(C)C3)nc2-c2cccnc2OC)ccc1F` [Cpd 24, 3-[1-(4-Fluoro-3-methoxyphenyl)-4-(2,2,6,6-tetramethyltetrahydro-2H-pyran-4-yl)-1H-imidazol-2-yl]-2-methoxypyridine] was tested. Which “Qpatch Pulse = 1 (percent inhibition)” value (concentration range 0.01-1 μM) did it give?
**A.** 29%

**Q.** For `COc1ncccc1-c1nc(C2CC(C)(C)OC(C)(C)C2)cn1Cc1ccccc1Cl` [Cpd 27, 3-[1-(2-Chlorobenzyl)-4-(2,2,6,6-tetramethyltetrahydro-2H-pyran-4-yl)-1H-imidazol-2-yl]-2-methoxypyridine], which “N Type IC50 Data Qpatch Pulse = 1” value [3] is on record?
**A.** poor fit

**Q.** How did the “N Type IC50 Data Qpatch Pulse = 1” value [3] turn out when `COc1ncccc1-c1nc(C2CC(C)(C)OC(C)(C)C2)cn1Cc1ccc(Cl)cc1` [Cpd 28, 3-[1-(4-Chlorobenzyl)-4-(2,2,6,6-tetramethyltetrahydro-2H-pyran-4-yl)-1H-imidazol-2-yl]-2-methoxypyridine] was run?
**A.** poor fit

**Q.** And the “N Type IC50 Data Qpatch Pulse = 15” value [3]?
**A.** poor fit

**Q.** `COc1ncccc1-c1nc(C2CC(C)(C)OC(C)(C)C2)cn1-c1ccc(C#N)c(C(F)(F)F)c1` [Cpd 29, 4-(2-(2-methoxypyridin-3-yl)-4-(2,2,6,6-tetramethyltetrahydro-2H-pyran-4-yl)-1H-imidazol-1-yl)-2-(trifluoromethyl)benzonitrile] was tested. Which “N Type IC50 Data Qpatch Pulse = 1” value [3] did it give?
**A.** poor fit

**Q.** And the “N Type IC50 Data Qpatch Pulse = 15” value [3]?
**A.** poor fit

**Q.** How did the “N Type IC50 Data Qpatch Pulse = 15” value [3] turn out when `COc1ncccc1-c1nc(C2CC(C)(C)OC(C)(C)C2)cn1-c1cccc(F)c1F` [Cpd 31, 3-(1-(2,3-difluorophenyl)-4-(2,2,6,6-tetramethyltetrahydro-2H-pyran-4-yl)-1H-imidazol-2-yl)-2-methoxypyridine] was run?
**A.** poor fit

**Q.** How did the “Qpatch Pulse = 1 (percent inhibition)” value (concentration range 0.01-1 μM) turn out when `COc1cc(-n2cc(C3CC(C)(C)OC(C)(C)C3)nc2-c2ccccc2OC)ccc1C#N` [Cpd 34, 2-Methoxy-4-[2-(2-methoxyphenyl)-4-(2,2,6,6-tetramethyltetrahydro-2H-pyran-4-yl)-1H-imidazol-1-yl]benzonitrile] was run?
**A.** 38%

**Q.** For `COc1ncccc1-c1nc(C2CC(C)(C)OC(C)(C)C2)cn1-c1ccc(F)c(Cl)c1` [Cpd 46, 3-[1-(3-Chloro-4-fluorophenyl)-4-(2,2,6,6-tetramethyltetrahydro-2H-pyran-4-yl)-1H-imidazol-2-yl]-2-methoxypyridine], which IC50 [1] is on record?
**A.** ≥ 10 µM

**Q.** With `COc1ncccc1-c1nc(C2CC(C)(C)OC(C)(C)C2)cn1-c1ccc(C(F)(F)F)nc1` [Cpd 54, 2-Methoxy-3-{4-(2,2,6,6-tetramethyltetrahydro-2H-pyran-4-yl)-1-[6-(trifluoromethyl)pyridin-3-yl]-1H-imidazol-2-yl}pyridine] as the molecule, how does the “N Type IC50 Data Qpatch Pulse = 1” value (concentration range 0.01-1 μM) read?
**A.** Poor fit

**Q.** And the “N Type IC50 Data Qpatch Pulse = 15” value (concentration range 0.01-1 μM)?
**A.** Poor fit

**Q.** Which “Qpatch Pulse = 1 (percent inhibition)” value (concentration range 0.01-1 μM) does the source give for `CC1(C)CC(c2cn(-c3ccc(Cl)cc3)c(CC3CC3)n2)CC(C)(C)O1` [Cpd 55, 1-(4-Chlorophenyl)-2-(cyclopropylmethyl)-4-(2,2,6,6-tetramethyltetrahydro-2H-pyran-4-yl)-1H-imidazole] here?
**A.** 48%

**Q.** With `CC1(C)CC(c2cn(-c3ccc(C(F)(F)F)nc3)c(CC3CC3)n2)CC(C)(C)O1` [Cpd 59, 5-[2-(Cyclopropylmethyl)-4-(2,2,6,6-tetramethyltetrahydro-2H-pyran-4-yl)-1H-imidazol-1-yl]-2-(trifluoromethyl)pyridine] as the molecule, how does the “N Type IC50 Data Qpatch Pulse = 1” value [3] read?
**A.** poor fit

**Q.** What about the “N Type IC50 Data Qpatch Pulse = 15” value [3] of the same molecule?
**A.** poor fit

**Q.** `CCOc1nccnc1-c1nc(C2CC(C)(C)OC(C)(C)C2)cn1-c1ccc(Cl)cc1` [Cpd 60, 2-[1-(4-Chlorophenyl)-4-(2,2,6,6-tetramethyltetrahydro-2H-pyran-4-yl)-1H-imidazol-2-yl]-3-ethoxypyrazine] was tested. Which “N Type IC50 Data Qpatch Pulse = 15” value [3] did it give?
**A.** poor fit

**Q.** How did the IC50 [1] turn out when `COc1cnccc1-c1nc(C2CC(C)(C)OC(C)(C)C2)cn1-c1ccc(Cl)cc1` [Cpd 66, 4-(1-(4-chlorophenyl)-4-(2,2,6,6-tetramethyltetrahydro-2H-pyran-4-yl)-1H-imidazol-2-yl)-3-methoxypyridine] was run?
**A.** ≥ 10 µM

**Q.** How did the IC50 [1] turn out when `COc1ccncc1-c1nc(C2CC(C)(C)OC(C)(C)C2)cn1-c1ccc(Cl)cc1` [Cpd 68, 3-(1-(4-chlorophenyl)-4-(2,2,6,6-tetramethyltetrahydro-2H-pyran-4-yl)-1H-imidazol-2-yl)-4-methoxypyridine] was run?
**A.** ≥ 10 µM

**Q.** For `COc1ncccc1-c1nc(C2CC(C)(C)OC(C)(C)C2)cn1-c1cc(F)ccc1F` [Cpd 71, 3-(1-(2,5-difluorophenyl)-4-(2,2,6,6-tetramethyltetrahydro-2H-pyran-4-yl)-1H-imidazol-2-yl)-2-methoxypyridine], which “N Type IC50 Data Qpatch Pulse = 15” value (concentration range 0.01-1 μM) is on record?
**A.** poor fit
